The values that follow come from patent US12569875B2, “Film formation method” (FLOSFIA INC., priority 2023, dated 2026).

Data set [1] can be described thus: Thermogravimetric-differential thermal analysis (TG-DTA) of iridium complexes. The data set is classed as physicochemical. The source says: The iridium complexes used in Examples and Comparative Examples described above were subjected to a thermogravimetric-differential thermal analysis (TG-DTA) under an oxygen atmosphere and a nitrogen atmosphere respectively, to examine decomposition properties of the complexes. […] As the iridium complex, the iridium complex represented be the above formula (3) and the iridium complex represented by the above formula (5) were used for Examples and Comparative Examples respectively.

A short description of data set [2]: Preparation of an aqueous iridium complex solution (water solubility). The format is physicochemical. As to conditions: aqueous solution at iridium concentration 0.01 mol/L could not be prepared.

Turning to iridium acetylacetonato [formula (5)], in data set [1] (TG-DTA, 400 to 600° C., FIG. 3), the “mass loss at 400 to 600° C.” value is recorded as “little mass loss”. Further, the mass loss ratio entry in data set [1] (at 400° C., temperature increase rate 20° C./min, FIG. 2 / FIG. 3) was “about 70%”. Besides, the solubility in water entry in data set [2] is “insoluble in water”.
